Assay results published in US11253516B2, “N2,N4-diphenylpyrimidine-2,4-diamine derivative, method for preparing same, and pharmaceutical composition containing same as active ingredient for prevention or treatment of cancer” (Korea Research Institute of Chemical Technology, priority 2017, dated 2022).
Like-named read-outs stand apart in the source and are kept apart here.

Experiments:
EGFR del19/T790M = EGFR del19/T790M (Homo sapiens (Human), UniProt P00533, DEL746-750/T790M); test: HTRF enzyme assay, EGFR del19/T790M; assay type: biochemical; conditions: recombinant enzyme
Sequence of EGFR del19/T790M (P00533 other isoform, or with tags, fused parts or gaps T790M/del 1-668/del 746-750 limits assumed): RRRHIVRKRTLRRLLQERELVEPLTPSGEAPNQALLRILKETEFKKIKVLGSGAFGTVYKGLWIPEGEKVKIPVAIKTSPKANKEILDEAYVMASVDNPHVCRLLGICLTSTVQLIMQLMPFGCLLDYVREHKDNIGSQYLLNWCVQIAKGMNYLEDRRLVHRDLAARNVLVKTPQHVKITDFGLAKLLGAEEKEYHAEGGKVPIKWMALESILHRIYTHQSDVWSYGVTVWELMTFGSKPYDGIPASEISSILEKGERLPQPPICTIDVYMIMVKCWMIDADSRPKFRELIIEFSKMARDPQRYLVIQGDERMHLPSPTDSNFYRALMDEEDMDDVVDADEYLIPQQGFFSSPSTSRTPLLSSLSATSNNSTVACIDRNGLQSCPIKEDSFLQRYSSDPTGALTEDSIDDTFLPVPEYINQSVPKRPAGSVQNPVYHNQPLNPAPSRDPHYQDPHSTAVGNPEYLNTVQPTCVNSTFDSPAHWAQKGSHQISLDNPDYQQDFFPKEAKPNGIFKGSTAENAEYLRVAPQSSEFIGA
Procedure: (§1) The measurement of an activity on wild-type and EGFR mutation enzyme of the compound of the present invention was experimented by utilizing the HTRF system sold by Cisbio, as follow.
(§2) The composition of the assay buffer used in the activity measurement was 50 mM Tris-HCl pH 7.5, 100 mM NaCl, 7.5 mM MgCl2, 3 mM KCl, 0.01% Tween 20, 0.1% BSA, 1 mM DTT. The enzymatic reaction was carried out hereto by using the peptide substrate labeled with ATP of […] concentration and biotin of […] concentration. The analysis of an EGFR activity inhibitory effect of the compound was carried out in accordance with the analysis reaction recipe below.
(§3) Component 1: […] of EGFR wild-type or mutation enzyme
(§4) Component 2: […] of compound solution
(§5) Component 3: […] of peptide labeled with ATP and biotin
(§6) The enzymatic reaction was initiated by mixing Component 1 and Component 2 first, and then, adding component 3. After the reaction for 2 hours at 37° C., […] of a measurement solution consisting of streptavidin-XL665 provided by Cisbio and anti-phosphotyrosine antibody labeled with europium was added to the enzymatic reaction solution and reacted for 1 hour at ambient temperature. […] The measurement values measured at the seven concentrations of the compound were analyzed by using the Prism program (version 5.01, Graphpad Software, Inc.), and IC50 value of the compound was calculated, which is an inhibitory ability indicator.

EGFR del19/T790M/C797S = EGFR del19/T790M/C797S (Homo sapiens, UniProt P00533, C797S/DEL746-750/T790M); test: HTRF enzyme assay, EGFR del19/T790M/C797S; assay type: biochemical
Sequence of EGFR del19/T790M/C797S (P00533 with tags, fused parts or gaps C797S/DEL746-750/T790M limits assumed): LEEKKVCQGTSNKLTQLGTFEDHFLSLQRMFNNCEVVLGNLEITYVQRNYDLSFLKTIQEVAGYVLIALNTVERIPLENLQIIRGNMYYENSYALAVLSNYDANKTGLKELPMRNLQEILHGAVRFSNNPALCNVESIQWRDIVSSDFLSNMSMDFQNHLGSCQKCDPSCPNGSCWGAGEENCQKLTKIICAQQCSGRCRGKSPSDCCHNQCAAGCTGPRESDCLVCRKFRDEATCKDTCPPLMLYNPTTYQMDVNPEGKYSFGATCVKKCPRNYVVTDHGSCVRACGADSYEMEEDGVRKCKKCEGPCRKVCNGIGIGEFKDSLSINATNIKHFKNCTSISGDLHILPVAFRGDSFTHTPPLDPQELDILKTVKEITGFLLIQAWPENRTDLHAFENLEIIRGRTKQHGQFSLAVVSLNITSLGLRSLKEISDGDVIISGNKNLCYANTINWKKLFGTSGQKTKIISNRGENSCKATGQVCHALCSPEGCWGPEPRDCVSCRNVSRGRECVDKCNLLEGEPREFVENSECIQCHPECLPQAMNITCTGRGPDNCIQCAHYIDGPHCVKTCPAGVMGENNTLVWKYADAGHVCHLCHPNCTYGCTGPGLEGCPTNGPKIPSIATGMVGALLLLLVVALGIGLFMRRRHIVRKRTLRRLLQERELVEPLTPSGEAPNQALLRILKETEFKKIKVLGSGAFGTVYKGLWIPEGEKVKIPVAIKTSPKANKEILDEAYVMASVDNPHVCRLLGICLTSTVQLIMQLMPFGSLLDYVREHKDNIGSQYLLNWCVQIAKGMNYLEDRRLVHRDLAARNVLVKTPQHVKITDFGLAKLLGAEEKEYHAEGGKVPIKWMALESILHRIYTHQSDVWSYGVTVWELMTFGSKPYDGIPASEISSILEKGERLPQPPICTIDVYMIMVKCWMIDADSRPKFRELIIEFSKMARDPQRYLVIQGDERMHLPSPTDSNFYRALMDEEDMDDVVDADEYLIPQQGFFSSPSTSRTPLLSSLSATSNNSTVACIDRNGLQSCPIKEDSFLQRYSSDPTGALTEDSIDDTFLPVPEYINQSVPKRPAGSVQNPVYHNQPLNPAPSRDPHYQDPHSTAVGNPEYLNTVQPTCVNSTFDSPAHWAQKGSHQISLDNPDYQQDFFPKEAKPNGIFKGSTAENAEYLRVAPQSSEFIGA
Procedure: as §1, §2, §3, §4, §5, §6

EGFR wt. = EGFR wt. (Homo sapiens (Human), UniProt P00533); test: HTRF enzyme assay, wild-type EGFR; assay type: biochemical; conditions: recombinant enzyme
Sequence of EGFR wt. (P00533 25-1210): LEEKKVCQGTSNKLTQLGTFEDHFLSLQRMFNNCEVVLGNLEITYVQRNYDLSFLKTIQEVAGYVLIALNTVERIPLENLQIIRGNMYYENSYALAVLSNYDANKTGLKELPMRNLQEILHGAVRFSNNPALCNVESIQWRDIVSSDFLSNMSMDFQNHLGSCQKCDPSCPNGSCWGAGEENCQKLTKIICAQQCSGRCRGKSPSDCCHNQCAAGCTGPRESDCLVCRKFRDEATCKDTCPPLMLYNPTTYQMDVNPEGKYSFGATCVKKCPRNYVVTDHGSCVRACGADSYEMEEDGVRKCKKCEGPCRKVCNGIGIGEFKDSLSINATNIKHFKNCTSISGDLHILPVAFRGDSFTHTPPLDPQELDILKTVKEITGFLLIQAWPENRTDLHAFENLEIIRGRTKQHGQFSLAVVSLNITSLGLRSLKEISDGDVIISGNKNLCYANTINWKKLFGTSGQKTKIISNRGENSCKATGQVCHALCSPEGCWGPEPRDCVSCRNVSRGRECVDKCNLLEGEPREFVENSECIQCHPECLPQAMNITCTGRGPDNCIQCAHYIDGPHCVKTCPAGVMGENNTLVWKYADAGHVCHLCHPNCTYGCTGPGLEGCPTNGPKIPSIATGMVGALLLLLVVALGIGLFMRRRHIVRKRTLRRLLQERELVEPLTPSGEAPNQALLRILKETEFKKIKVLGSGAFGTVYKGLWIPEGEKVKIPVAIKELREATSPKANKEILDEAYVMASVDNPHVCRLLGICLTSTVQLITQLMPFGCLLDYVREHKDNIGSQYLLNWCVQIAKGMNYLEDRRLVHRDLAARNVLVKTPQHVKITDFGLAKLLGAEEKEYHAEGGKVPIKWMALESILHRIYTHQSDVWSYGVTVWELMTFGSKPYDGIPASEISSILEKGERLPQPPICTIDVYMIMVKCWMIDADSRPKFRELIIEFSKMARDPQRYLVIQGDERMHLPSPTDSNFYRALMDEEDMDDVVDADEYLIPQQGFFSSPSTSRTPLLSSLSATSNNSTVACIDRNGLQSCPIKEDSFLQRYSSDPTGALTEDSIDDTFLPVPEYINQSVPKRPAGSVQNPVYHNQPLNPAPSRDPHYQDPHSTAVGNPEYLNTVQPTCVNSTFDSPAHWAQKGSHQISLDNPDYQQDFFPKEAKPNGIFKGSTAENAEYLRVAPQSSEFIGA
Procedure: as §1, §2, §3, §4, §5, §6

EGFR del19 = EGFR del19 (Homo sapiens (Human), UniProt P00533, DEL746-750); test: HTRF enzyme assay, EGFR del19; assay type: biochemical; conditions: recombinant enzyme
Sequence of EGFR del19 (P00533 other isoform, or with tags, fused parts or gaps del 1-668/del 746-750 limits assumed): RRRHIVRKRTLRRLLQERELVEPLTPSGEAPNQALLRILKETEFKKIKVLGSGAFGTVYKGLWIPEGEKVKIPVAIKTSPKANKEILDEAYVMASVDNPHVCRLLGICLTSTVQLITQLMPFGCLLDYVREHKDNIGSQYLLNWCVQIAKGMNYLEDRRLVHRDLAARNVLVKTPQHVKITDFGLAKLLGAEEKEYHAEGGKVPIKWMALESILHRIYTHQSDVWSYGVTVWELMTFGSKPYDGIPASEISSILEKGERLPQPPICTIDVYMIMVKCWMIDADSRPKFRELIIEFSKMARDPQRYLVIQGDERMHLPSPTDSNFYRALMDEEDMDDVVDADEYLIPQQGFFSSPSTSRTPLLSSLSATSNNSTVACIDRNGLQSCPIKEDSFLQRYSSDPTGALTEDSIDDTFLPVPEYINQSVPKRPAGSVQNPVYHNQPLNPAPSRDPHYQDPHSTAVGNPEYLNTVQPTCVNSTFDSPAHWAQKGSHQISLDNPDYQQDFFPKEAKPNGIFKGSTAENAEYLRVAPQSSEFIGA
Procedure: as §1, §2, §3, §4, §5, §6

[1] = tested on: Ba/F3 EGFR del19 cell line; test: CellTiter-Glo cell viability, Ba/F3 EGFR del19; assay type: cell-based; conditions: 72 hours
Procedure: (§7) The measurement of an activity on wild-type and mutation Ba/F3 EGFR cell line of the compound of the present invention was experimented by utilizing the CellTiter-Glo system sold by Promega, as follow. The CellTiter-Glo assay is a method for measuring the ATP present in cells in cell culture conditions to determine the cell viability.
(§8) The analysis of an EGFR inhibitory ability effect of the compound was carried out in accordance with the analysis reaction recipe below.
(§9) After the reaction of 72 hours, the plate treated with the compound was allowed to stand for 30 minutes at ambient temperature, and then, was further treated with 100 μl of the reagent, and was shaked for 10 minutes at ambient temperature. […] The measurement values measured at the eight concentrations of the compound were analyzed by using the Prism program (version 5.01, Graphpad Software, Inc.), and IC50 value of the compound was calculated, which is an inhibitory ability indicator.

[2] = tested on: Ba/F3 EGFR del19/T790M cell line; test: CellTiter-Glo cell viability, Ba/F3 EGFR del19/T790M; assay type: cell-based; conditions: read-out: Ba/F3 EGFR del19/T790M IC50
Procedure: as §7, §8
(§10) After the reaction of 72 hours, the plate treated with the compound was allowed to stand for 30 minutes at ambient temperature, and then, was further treated with 100 μl of the reagent, and was shaked for 10 minutes at ambient temperature.

Ba/F3 EGFR wt. cell line = test: CellTiter-Glo cell viability, Ba/F3 EGFR wild-type; assay type: cell-based; conditions: 72 hours
Procedure: as §7, §8, §9

[3] = tested on: Ba/F3 EGFR del19/T790M/C797S cell line; test: CellTiter-Glo cell viability, Ba/F3 EGFR del19/T790M/C797S; assay type: cell-based; conditions: read-out: Ba/F3 EGFR del19/T790M/C797S IC50
Procedure: as §7, §8, §10

[4] = HTRF, recombinant enzyme, read-out: EGFR del19/T790M/C797S IC50

Structure (SMILES) | IC50 (EGFR del19/T790M) | IC50 (EGFR del19/T790M/C797S; [4]) | IC50 (EGFR wt.) | IC50 (EGFR del19) | IC50 [1] | IC50 ([2]; CellTiter-Glo, 72 hours) | IC50 (Ba/F3 EGFR wt. cell line) | IC50 ([3]; CellTiter-Glo, 72 hours) | IC50 (EGFR del19/T790M/C797S) | IC50 ([2]; 72 h) | IC50 ([3]; 72 h)
COc1cc(N2CCNCC2)ccc1Nc1ncc(C(F)(F)F)c(Nc2ccccc2NS(C)(=O)=O)n1 [Example 31, N-(2-((2-((2-methoxy-4-(piperazin-4-yl)phenyl)amino)-5-(trifluoromethyl)pyrimidin-4-yl)amino)phenyl)methanesulfonamide] | 29 nM | 7 nM | 580 nM | 36 nM |  |  |  |  |  |  | 
COc1cc(N2CCNCC2)ccc1Nc1ncc(Cl)c(Nc2ccccc2NS(C)(=O)=O)n1 [Example 23, N-(2-((5-chloro-2-((2-methoxy-4-(piperazin-1-yl)phenyl)amino)pyrimidin-4-yl)amino)phenyl)methanesulfonamide] | 32 nM | 29 nM | 2700 nM | 25 nM |  |  |  |  |  |  | 
COc1cc(C2CCNCC2)ccc1Nc1ncc(Cl)c(Nc2ccccc2NS(N)(=O)=O)n1 [Example 6, 4-(4-((5-chloro-4-((2-(sulfamoylamino)phenyl)amino)pyrimidin-2-yl)amino)-3-methoxyphenyl)piperidine] | 10 nM | 11 nM | 390 nM | 26 nM | 6400 nM | 9000 nM | > 15000 nM | 5800 nM |  |  | 
COc1cc(N2CCNCC2)ccc1Nc1ncc(Cl)c(Nc2ccccc2NS(N)(=O)=O)n1 [Example 29, 4-(4-((5-chloro-4-((2-(sulfamoylamino)phenyl)amino)pyrimidin-2-yl)amino)-3-methoxyphenyl)piperazine] | 4 nM | 7 nM | 1200 nM | 5 nM | 1900 nM | 2100 nM | 2800 nM | 2900 nM |  |  | 
COc1cc(N2CCC(N3CCN(CCO)CC3)CC2)ccc1Nc1ncc(Cl)c(Nc2ccccc2NS(C)(=O)=O)n1 [Example 22, N-(2-((5-chloro-2-((4-(4-(4-(2-hydroxyethyl)piperazin-1-yl)piperidin-1-yl)-2-methoxyphenyl)amino)pyrimidin-4-yl)amino)phenyl)methanesulfonamide] | 31 nM |  | 260 nM | 0.4 nM | 900 nM |  |  |  | 0.8 nM | 390 nM | 1300 nM
COc1cc(C2CCN(CCO)CC2)ccc1Nc1ncc(Cl)c(Nc2ccccc2NS(C)(=O)=O)n1 [Example 13, N-(2-((5-chloro-2-((4-(1-(2-hydroxyethyl)piperidin-4-yl)-2-methoxyphenyl)amino)pyrimidin-4-yl)amino)phenyl)methanesulfonamide] | 250 nM | 33 nM | 1900 nM | 13 nM | 980 nM | 650 nM | 4400 nM | 1500 nM |  |  | 
COc1cc(C2CCNCC2)ccc1Nc1ncc(Br)c(Nc2ccccc2NS(N)(=O)=O)n1 [Example 7, 4-(4-((5-bromo-4-((2-(sulfamoylamino)phenyl)amino)pyrimidin-2-yl)amino)-3-methoxyphenyl)piperidine] | 38 nM | 2 nM | > 10000 nM | 79 nM | 470 nM | 1600 nM | 3400 nM | 3300 nM |  |  | 
COc1cc(C2CCNCC2)ccc1Nc1ncc(Br)c(Nc2ccccc2NS(C)(=O)=O)n1 [Example 3, N-(2-((5-bromo-2-((2-methoxy-4-(piperidin-4-yl)phenyl)amino)pyrimidin-4-yl)amino)phenyl)methanesulfonamide] | 5 nM | 2 nM | 840 nM | 18 nM | 1000 nM | 1200 nM | 4100 nM | 1600 nM |  |  | 
COc1cc(C2CCN(C3CCN(C(C)=O)CC3)CC2)ccc1Nc1ncc(Cl)c(Nc2ccccc2NS(C)(=O)=O)n1 [Example 18, N-(2-((2-((4-(1′-acetyl-[1,4′-bipiperidin]-4-yl)-2-methoxyphenyl)amino)-5-chloropyrimidin-4-yl)amino)phenyl)methanesulfonamide] | 92 nM | 30 nM | 970 nM | 13 nM | 2700 nM | 1400 nM | 4400 nM | 2000 nM |  |  | 
COc1cc(N2CCN(C3CCNCC3)CC2)ccc1Nc1ncc(Cl)c(Nc2ccccc2NS(C)(=O)=O)n1 [Example 27, N-(2-((5-chloro-2-((2-methoxy-4-(4-(piperidin-4-yl)piperazin-1-yl)phenyl)amino)pyrimidin-4-yl)amino)phenyl)methanesulfonamide] | 21 nM | 1 nM | 280 nM | 0.3 nM | 1100 nM | 940 nM |  | > 10000 nM |  |  | 
COc1cc(C2CCNCC2)ccc1Nc1ncc(Cl)c(Nc2ccccc2NS(C)(=O)=O)n1 [Example 1, N-(2-((5-chloro-2-((2-methoxy-4-(piperidin-4-yl)phenyl)amino)pyrimidin-4-yl)amino)phenyl)methanesulfonamide] |  |  |  |  | 6600 nM | 7100 nM | > 15000 nM |  |  |  | 

Continued, in another order:

IC50 (EGFR del19/T790M) | IC50 (EGFR del19/T790M/C797S; [4]) | IC50 (EGFR wt.) | IC50 (EGFR del19) | IC50 [1] | IC50 ([2]; CellTiter-Glo, 72 hours) | IC50 (Ba/F3 EGFR wt. cell line) | IC50 ([3]; CellTiter-Glo, 72 hours) | Structure (SMILES) | IC50 (EGFR del19/T790M/C797S) | IC50 ([2]; 72 h) | IC50 ([3]; 72 h)
 |  |  |  |  |  |  | 840 nM | COc1cc(N2CCC(N)CC2)ccc1Nc1ncc(Cl)c(Nc2ccccc2NS(C)(=O)=O)n1 [Example 38, N-(2-((2-((4-(4-aminopiperidin-1-yl)-2-methoxyphenyl)amino)-5-chloropyrimidin-4-yl)amino)phenyl)methanesulfonamide] |  |  | 
95 nM | 34 nM | 1400 nM | 6 nM | 500 nM | 540 nM | 750 nM | 110 nM | COc1cc(C2CCN(C3CCN(CCO)CC3)CC2)ccc1Nc1ncc(Cl)c(Nc2ccccc2NS(C)(=O)=O)n1 [Example 14, N-(2-((5-chloro-2-((4-(1′-(2-hydroxyethyl)-[1,4′-bipiperidin]-4-yl)-2-methoxyphenyl)amino)pyrimidin-4-yl)amino)phenyl)methanesulfonamide] |  |  | 
 | < 1 nM |  |  |  |  |  | 120 nM | COc1cc(N2CCC(N3C[C@@H](C)N[C@@H](C)C3)CC2)ccc1Nc1ncc(Cl)c(Nc2ccccc2NS(C)(=O)=O)n1 [Example 33, N-(2-((5-chloro-2-((4-(4-((3R,5S)-3,5-dimethylpiperazin-1-yl)piperidin-1-yl)-2-methoxyphenyl)amino)pyrimidin-4-yl)amino)phenyl)methanesulfonamide] |  |  | 
8.3 nM | < 1 nM | 27 nM | 1.1 nM |  |  |  | 84 nM | COc1cc(N2CCC(N3CCCC3)CC2)ccc1Nc1ncc(Cl)c(Nc2ccccc2NS(C)(=O)=O)n1 [Example 35, N-(2-((5-chloro-2-((2-methoxy-4-(4-(pyrrolidin-1-yl)piperidin-1-yl)phenyl)amino)pyrimidin-4-yl)amino)phenyl)methanesulfonamide] |  |  | 
 | < 1 nM |  |  |  |  |  | 160 nM | COc1cc(N2CCC(N3CCOCC3)CC2)ccc1Nc1ncc(Cl)c(Nc2ccccc2NS(C)(=O)=O)n1 [Example 34, N-(2-((5-chloro-2-((2-methoxy-4-(4-morpholinopiperidin-1-yl)phenyl)amino)pyrimidin-4-yl)amino)phenyl)methanesulfonamide] |  |  | 
 |  |  |  |  |  |  | 500 nM | CNC1CCN(c2ccc(Nc3ncc(Cl)c(Nc4ccccc4NS(C)(=O)=O)n3)c(OC)c2)CC1 [Example 40, N-(2-((5-chloro-2-((2-methoxy-4-(4-(methylamino)piperidin-1-yl)phenyl)amino)pyrimidin-4-yl)amino)phenyl)methanesulfonamide] |  |  | 
 |  |  |  |  |  |  | 930 nM | COc1cc(N2CCC(N(C)C)CC2)ccc1Nc1ncc(Cl)c(Nc2ccccc2NS(N)(=O)=O)n1 [Example 36] |  |  | 
